pEC50, pIC50: −log10 of the molar value. Read-outs that look alike come from different tables or passages of the source.

In data set [1] the test system is Hazara virus (HAZV). Put plainly: microbe, parasite or virus in culture. It is filed as cell-based.
In data set [2] the test system is Hazara virus (HAZV). The experiment in a line: microbe, parasite or virus in culture. The format is cell-based. To be noted: SW13, 24 h; for inhibition at 10 µM: read-out: Viral inhibition on primary infection (%).
Data set [3] can be described thus: Viability of SW13 cells by nuclei count in the HAZV antiviral assay. It is filed as cell-based. To be noted: human, SW13 cells inoculated with HAZV; SW13 cells, nuclei count relative to DMSO, 10 μM, 24 h.
The next data set has as its system SW13 cells. The data set is described as above. The format is cell-based. To be noted: Homo sapiens.
For a further data set, the system named is Huh7 cells. Put plainly: Cell viability, resazurin assay. The format is cell-based. The following applies: Huh7 cells, 24, 48 or 72 h. A general note: The colour change of resazurin is a common sign of viable cells or microbes.
In another data set the test system is EBOV. It is filed as cell-based, Sudan Ebolavirus. The following applies: Vero cells, MOI 0.5, 10 µM, 48 h.
The subject of another data set is CoV 229E. The experiment in a line: CoV 229E titer in Huh7 cells, end-point dilution assay. The format is cell-based, Coronavirus 229E. The following applies: MOI 5, 10 µM, 24 h.
For the next data set, the target named is OGG1 (Homo sapiens, UniProt O15527). Put plainly: In vitro OGG1 activity assay. It is filed as biochemical. To be noted: for OGG1 activity (in words): Figure 3A.
The next data set concerns SARS-CoV-2. It is filed as cell-based.
The test system of a further data set is Vero cells. The experiment in a line: Cell viability, MTT assay. It is filed as cell-based. The following applies: 48 h.
The subject of a further data set is CCHFV. It is filed as cell-based, Crimean-Congo hemorrhagic fever virus. To be noted: Vero cells, MOI 1, 10 µM, 48 h.

Sequence of OGG1 (O15527 whole entry): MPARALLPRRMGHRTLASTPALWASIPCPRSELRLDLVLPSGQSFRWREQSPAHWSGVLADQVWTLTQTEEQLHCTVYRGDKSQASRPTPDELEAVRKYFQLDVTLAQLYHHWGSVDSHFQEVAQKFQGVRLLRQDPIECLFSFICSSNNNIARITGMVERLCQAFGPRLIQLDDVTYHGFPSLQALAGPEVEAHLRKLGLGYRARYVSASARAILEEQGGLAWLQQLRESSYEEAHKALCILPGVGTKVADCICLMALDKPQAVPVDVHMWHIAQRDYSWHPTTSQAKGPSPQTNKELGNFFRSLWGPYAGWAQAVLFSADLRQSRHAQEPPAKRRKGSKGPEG

`NC(=O)c1ncn([C@@H]2O[C@H](CO)[C@@H](O)[C@H]2O)n1` [Ribavirin, reference compound]: the “reduction of HAZV viral titer” value in the data set on Hazara virus (HAZV) [1] (100 µM, positive control) came out at 98%.

Regarding `O=C(Nc1ccc(I)cc1)N1CCC(n2c(=O)[nH]c3cc(Cl)ccc32)CC1` [TH3289], the IC50 (commonly the concentration at which inhibition is half-maximal) worked out at 18.7 µM in the data set on Hazara virus (HAZV) [2] (read-out: Antiviral on primary infection IC50 [µM]) and 14.7 µM with Hazara virus (HAZV) [1] (Hazara virus, SW13, 24 h, read-out: Antiviral on titer (µM) IC50 [µM]). The pEC50 (usually the negative decadic logarithm of the EC50, by convention in mol/L) in the data set on Hazara virus (HAZV) [2] (read-out: EC50 Infected cells (primary infection)) was 4.73; in the data set on SW13 cells (SW13, 24 h, read-out: EC50 Living cells) it was 4.33; in the data set with SW13 cells (HAZV, SW13, MOI 1, 24 h, read-out: Viability (nuclei count) EC50), 4.32; in the data set with Hazara virus (HAZV) [1] (Hazara virus, SW13, read-out: EC50 Viral titer) it was 4.83. Besides, the inhibition (usually the share of the control response that was lost under treatment) at 10 µM is 58% with Hazara virus (HAZV) [2] and 95% in the data set on Hazara virus (HAZV) [1] (Hazara virus, Vero, 24 h, read-out: Viral inhibition on titer (%)). For the same molecule, the viability (commonly the share of living cells, or the viability signal relative to a control) at 24 h, 10 µM in data set [3] was 77%. Moreover, in the data set on Hazara virus (HAZV) [1] (SW13 cells, MOI 1, 10 µM, 24 h), the “reduction of HAZV titer” value came to 94%. The “toxicity profile, cellular viability by resazurin assay” value with Huh7 cells is “favourable toxicity profile”. For the same molecule, in the data set with EBOV, the “reduction of EBOV viral titer” value came to 40%. Further, the “reduction of CoV 229E titer” value in the data set with CoV 229E worked out at 84%. Also, the “OGG1 activity (in words)” value at OGG1 is “Micromolar OGG1activity”. Besides, the “reduction of SARS-CoV-2 titer” value with SARS-CoV-2 is recorded as 58%. The “toxicity profile, viability by MTT assay” value in the data set with Vero cells is reported as “favourable toxicity profile”. In addition, the “reduction of CCHFV viral titer” value in the data set with CCHFV worked out at 70%.

As for `O=C(Nc1ccc(I)cc1)N1CCC(c2c[nH]c3ccccc23)CC1` [TH4448, 4‐(1H‐indol‐3‐yl)‐N‐(4‐iodophenyl)piperidine‐1‐carboxamide], the inhibition at 10 µM in the data set on Hazara virus (HAZV) [2] turned out to be 98%. In data set [3], this molecule registered a viability at 24 h, 10 µM of 82%. Also, at OGG1, the pIC50 (usually the IC50 on a negative log10 scale, so that one unit is a factor of ten) is below 4.00 and the “OGG1 activity (in words)” value is “No OGG1 activity”.

Values taken from paper PMC7762994 (Viruses, 2020).
